Test results from ChEMBL document CHEMBL4616677, “Preclinical Lead Optimization of a 1,2,4-Triazole Based Tankyrase Inhibitor” (J Med Chem, 2020).
The source made the active and inactive calls. The calls are words filed in the database; no cut-off is given here.

Key:
[1] = target: Poly [ADP-ribose] polymerase 1 (Homo sapiens, UniProt P09874); experiment: Inhibition of ARTD1 (unknown origin) measured after 30 mins in presence of NAD+ by fluorescence assay
[2] = target: Poly [ADP-ribose] polymerase 2 (Homo sapiens, UniProt Q9UGN5); experiment: Inhibition of ARTD2 (unknown origin) measured after 30 mins in presence of NAD+ by fluorescence assay
[3] = target: T1, Protein mono-ADP-ribosyltransferase PARP3 (Homo sapiens, UniProt Q9Y6F1); experiment: Inhibition of ARTD3 (unknown origin) measured after 4 hrs in presence of NAD+ by fluorescence assay
T1 sequence (Q9Y6F1 whole entry): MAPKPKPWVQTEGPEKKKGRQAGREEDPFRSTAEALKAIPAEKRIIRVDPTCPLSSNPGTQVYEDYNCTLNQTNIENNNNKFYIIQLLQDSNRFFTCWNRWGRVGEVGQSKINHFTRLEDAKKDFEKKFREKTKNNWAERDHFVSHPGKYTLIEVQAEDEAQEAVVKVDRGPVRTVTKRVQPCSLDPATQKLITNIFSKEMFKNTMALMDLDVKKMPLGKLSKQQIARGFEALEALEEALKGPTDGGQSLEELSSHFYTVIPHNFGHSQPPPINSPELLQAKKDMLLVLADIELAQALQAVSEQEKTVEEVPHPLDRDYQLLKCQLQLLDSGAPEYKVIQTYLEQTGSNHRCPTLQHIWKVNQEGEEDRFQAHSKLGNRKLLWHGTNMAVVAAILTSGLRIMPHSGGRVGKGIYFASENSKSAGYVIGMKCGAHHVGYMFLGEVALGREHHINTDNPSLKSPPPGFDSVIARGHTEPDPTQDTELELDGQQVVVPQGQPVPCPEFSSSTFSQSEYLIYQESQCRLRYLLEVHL

[4] = target: Protein mono-ADP-ribosyltransferase PARP4 (Homo sapiens, UniProt Q9UKK3)
[5] = Apparent permeability across apical to basolateral side in human Caco2 cells at 10 uM measured after 2 hrs by lucifer yellow based LC-MS/MS analysis; assay type: ADME, cell-based; conditions: Caco-2
[6] = Clearance in ICR mouse at 5 mg/kg, po by LC-MS/MS analysis; assay type: ADME, organism-based; conditions: in vivo
[7] = Genotoxicity in Salmonella typhimurium TA98 in presence or absence of rat S9 fraction by mini-Ames test; assay type: toxicity; conditions: salmonella enterica subsp. enterica serovar typhimurium
[8] = Genotoxicity in Salmonella typhimurium TA100 in presence or absence of rat S9 fraction by mini-Ames test; assay type: toxicity; conditions: salmonella enterica subsp. enterica serovar typhimurium
RKO = experiment: Antiproliferative activity against APC wild-type human RKO cells at 10 uM measured after 5 days by MTS assay; assay type: functional, cell-based

Poly [ADP-ribose] polymerase 2, sequence (Q9UGN5 whole entry): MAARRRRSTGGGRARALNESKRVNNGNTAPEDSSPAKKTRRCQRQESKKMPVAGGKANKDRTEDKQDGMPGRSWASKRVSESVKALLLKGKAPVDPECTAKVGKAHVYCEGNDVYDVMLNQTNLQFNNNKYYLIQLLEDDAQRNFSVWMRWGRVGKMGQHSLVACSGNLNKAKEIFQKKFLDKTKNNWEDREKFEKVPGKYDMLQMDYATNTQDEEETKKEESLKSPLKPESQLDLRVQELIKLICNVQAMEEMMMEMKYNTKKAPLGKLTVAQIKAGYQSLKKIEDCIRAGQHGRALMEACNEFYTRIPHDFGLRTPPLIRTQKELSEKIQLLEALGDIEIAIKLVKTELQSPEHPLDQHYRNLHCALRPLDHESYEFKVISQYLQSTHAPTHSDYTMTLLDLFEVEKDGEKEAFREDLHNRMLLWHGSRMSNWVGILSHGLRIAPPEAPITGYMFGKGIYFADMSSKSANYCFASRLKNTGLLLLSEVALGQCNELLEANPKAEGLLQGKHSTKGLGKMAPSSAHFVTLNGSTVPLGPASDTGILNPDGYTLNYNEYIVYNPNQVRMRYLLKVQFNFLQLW
Poly [ADP-ribose] polymerase 1, sequence (P09874 whole entry): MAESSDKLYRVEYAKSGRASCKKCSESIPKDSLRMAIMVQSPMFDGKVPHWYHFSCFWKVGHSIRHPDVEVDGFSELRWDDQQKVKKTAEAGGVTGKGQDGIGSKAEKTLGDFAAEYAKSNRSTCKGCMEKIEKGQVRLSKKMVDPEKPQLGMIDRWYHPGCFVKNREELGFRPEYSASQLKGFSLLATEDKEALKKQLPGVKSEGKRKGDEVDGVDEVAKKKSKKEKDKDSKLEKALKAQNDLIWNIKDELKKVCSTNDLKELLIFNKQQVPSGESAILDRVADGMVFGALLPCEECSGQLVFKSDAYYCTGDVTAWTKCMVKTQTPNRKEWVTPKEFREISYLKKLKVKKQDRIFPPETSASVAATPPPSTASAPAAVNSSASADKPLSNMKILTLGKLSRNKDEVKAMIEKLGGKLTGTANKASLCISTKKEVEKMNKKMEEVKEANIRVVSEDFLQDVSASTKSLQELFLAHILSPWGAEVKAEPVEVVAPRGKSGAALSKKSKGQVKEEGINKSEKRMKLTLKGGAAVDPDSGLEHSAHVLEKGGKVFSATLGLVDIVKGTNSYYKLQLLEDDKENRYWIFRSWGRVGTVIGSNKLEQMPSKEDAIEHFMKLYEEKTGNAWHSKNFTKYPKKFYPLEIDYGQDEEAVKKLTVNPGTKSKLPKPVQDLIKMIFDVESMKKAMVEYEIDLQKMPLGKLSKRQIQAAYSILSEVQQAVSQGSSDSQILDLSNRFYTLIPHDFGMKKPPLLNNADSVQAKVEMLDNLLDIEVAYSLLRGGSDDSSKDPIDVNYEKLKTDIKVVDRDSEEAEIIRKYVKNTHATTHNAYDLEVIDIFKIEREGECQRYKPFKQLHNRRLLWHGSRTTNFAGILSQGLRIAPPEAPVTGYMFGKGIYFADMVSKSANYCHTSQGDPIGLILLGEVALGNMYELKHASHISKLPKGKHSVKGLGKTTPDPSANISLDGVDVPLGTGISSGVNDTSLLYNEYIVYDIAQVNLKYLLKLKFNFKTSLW
Protein mono-ADP-ribosyltransferase PARP4, sequence (Q9UKK3 whole entry): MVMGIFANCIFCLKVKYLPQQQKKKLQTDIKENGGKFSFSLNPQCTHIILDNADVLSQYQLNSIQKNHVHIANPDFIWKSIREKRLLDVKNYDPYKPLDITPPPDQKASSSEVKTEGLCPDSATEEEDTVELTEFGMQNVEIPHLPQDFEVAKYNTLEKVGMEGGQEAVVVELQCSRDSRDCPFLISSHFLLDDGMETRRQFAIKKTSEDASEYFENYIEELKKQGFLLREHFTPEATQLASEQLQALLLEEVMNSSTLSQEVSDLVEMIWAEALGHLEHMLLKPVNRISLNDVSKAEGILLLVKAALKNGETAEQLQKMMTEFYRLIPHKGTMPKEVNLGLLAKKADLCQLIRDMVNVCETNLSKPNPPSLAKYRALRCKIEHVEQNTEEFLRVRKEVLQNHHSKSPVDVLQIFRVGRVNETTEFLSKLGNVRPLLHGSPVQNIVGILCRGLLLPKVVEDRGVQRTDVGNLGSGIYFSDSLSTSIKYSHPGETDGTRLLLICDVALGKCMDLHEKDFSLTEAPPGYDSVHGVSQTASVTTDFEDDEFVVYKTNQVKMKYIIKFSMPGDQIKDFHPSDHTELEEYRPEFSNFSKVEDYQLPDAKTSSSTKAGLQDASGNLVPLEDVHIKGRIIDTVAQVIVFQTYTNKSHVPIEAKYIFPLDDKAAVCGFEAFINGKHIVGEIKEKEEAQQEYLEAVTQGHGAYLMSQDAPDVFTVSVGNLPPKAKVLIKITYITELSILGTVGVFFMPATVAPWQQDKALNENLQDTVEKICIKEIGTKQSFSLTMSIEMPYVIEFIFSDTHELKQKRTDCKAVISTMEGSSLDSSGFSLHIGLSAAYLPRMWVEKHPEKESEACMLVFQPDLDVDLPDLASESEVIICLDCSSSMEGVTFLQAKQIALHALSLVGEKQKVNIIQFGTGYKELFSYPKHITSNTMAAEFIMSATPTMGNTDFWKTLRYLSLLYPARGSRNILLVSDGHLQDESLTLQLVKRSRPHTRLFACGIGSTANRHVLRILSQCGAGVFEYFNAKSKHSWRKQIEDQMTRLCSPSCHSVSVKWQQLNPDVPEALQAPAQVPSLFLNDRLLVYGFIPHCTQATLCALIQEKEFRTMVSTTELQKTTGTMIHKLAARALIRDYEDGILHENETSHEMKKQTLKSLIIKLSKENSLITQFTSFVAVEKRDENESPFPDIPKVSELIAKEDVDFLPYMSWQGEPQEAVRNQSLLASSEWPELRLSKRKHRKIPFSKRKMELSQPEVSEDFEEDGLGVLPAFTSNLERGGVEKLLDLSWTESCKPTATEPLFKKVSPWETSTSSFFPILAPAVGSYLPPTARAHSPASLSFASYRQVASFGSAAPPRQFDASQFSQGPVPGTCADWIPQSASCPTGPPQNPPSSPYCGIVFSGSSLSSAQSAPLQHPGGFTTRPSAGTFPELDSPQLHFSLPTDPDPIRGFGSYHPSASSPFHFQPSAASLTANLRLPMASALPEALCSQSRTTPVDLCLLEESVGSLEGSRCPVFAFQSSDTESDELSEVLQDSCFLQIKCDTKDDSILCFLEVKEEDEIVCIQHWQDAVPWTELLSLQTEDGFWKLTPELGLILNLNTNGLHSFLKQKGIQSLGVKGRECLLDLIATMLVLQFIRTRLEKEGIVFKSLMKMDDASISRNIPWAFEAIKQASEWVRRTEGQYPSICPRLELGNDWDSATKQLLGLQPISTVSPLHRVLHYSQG

Row | CL/F [6] [mL/min/kg] | Compound | IC50 [3] [µM] | Papp A→B at 2 h, 10 µM [5] [×10⁻⁶ cm/s] | other results
1 | – | N#Cc1ccc2c(c1)[nH]c(=O)n2[C@H]1C[C@H](c2nnc(-c3ccncn3)n2-c2ccccc2Cl)C1 | > 10 | – | IC50 [1]: > 10 µM; IC50 [2]: > 10 µM; IC50 [4]: > 10 µM
2 | 16.5 | O=C(N[C@H]1C[C@H](c2nnc(-c3ccccn3)n2-c2ccccc2F)C1)c1ccnc2cc(F)cnc12 | – | – | –
3 | 28.2 | CS(=O)(=O)c1ccc(-c2nnc([C@H]3C[C@H](NC(=O)c4cccc5cccnc45)C3)n2-c2ccccc2F)nc1 | – | – | –
4 | – | O=C(N[C@H]1C[C@H](c2nnc(-c3ccncn3)n2-c2ccccc2Cl)C1)c1ccnc2cccnc12 | – | 3.1 | –

Row | Compound | CL/F [6] [mL/min/kg] | IC50 [3] [µM] | Papp A→B at 2 h, 10 µM [5] [×10⁻⁶ cm/s] | other results
5 | CCOc1ccc(-c2nnc([C@H]3C[C@H](NC(=O)c4ccccn4)C3)n2-c2ccccc2F)nc1 | 34.8 | > 10 | 39.5 to 40 | Activity [7]: Non-Toxic; Activity [8]: Non-Toxic; Activity (RKO): Active
